Measurements taken from the METLIN SMRT retention time set (Domingo-Almenara et al. 2019).

Test: gradient 5% acetonitrile 3 min, to 50% in 2 min, to 85% in 15 min, held 3 min, 100 µL/min
Conditions: column: Zorbax Extend-C18 2.1 x 50 mm; eluents: water / acetonitrile, 0.1% formic acid
Procedure, shortened: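 In both positive and negative ionization mode, a quadrupole time-of-flight mass spectrometer coupled to HPLC analyzed pure standards run in mixtures of ~100 molecules. The Zorbax Extend-C18 column (2.1 × 50 mm, 1.8 μm) was operated at 100 μL/min with water and acetonitrile, each containing 0.1% formic acid. The dead volume was 40 μL and the dwell volume 900 μL. Retention time came from adduct peaks that were computationally picked and individually inspected by hand.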

| Compound | RP-LC retention time |
| --- | --- |
| COCCN(Cc1ccsc1)C(=O)C1(c2cccs2)CCCC1 | 1070 s |
| COc1ccc(-c2c(C(=O)Nc3ccc4c(c3)OCCO4)nc3ccccn23)cc1 | 919 s |
| Cc1ncoc1C(=O)N1CC(n2cc(COc3ccc(F)cc3)nn2)C1 | 722 s |
| CCN1C(=O)c2cc(S(=O)(=O)NCc3ccc(F)cc3)ccc2Oc2cccnc21 | 1060 s |
| Cc1ccc(-c2nc(-c3ccc(-n4ccnc4)nc3)no2)cc1 | 794 s |
| CC(C)CCNS(=O)(=O)c1ccc(-c2nc(C(C)C)cs2)s1 | 1260 s |
| O=C1[C@H]2CN(Cc3ccccc3Cl)C[C@H]2C(=O)N1Cc1ccc2c(c1)OCO2 | 930 s |
| CCC(C)Nc1nc(-c2ccc(C)cc2)nnc1C (stereo not given) | 719 s |
| COc1ccc2c(c1)C1(CCN(S(=O)(=O)c3cc(F)cc(F)c3)C1)C(=O)N2C (stereo not given) | 940 s |
| COc1ccc(Cc2cnc(NC(=O)C3COc4ccccc4C3)s2)cc1 (stereo not given) | 952 s |
| O=C(NCCc1c[nH]c2ccccc12)c1cc2cccnc2n(Cc2ccccc2F)c1=O | 1080 s |
| CN(CCc1noc(COc2ccccc2)n1)C(=O)Nc1cccc(Br)c1 | 964 s |
| Cc1cc(C(=O)NCc2ccsc2)no1 | 700 s |
| Nc1ccc(CC(CC(=O)O)C(=O)O)cc1 (stereo not given) | 850 s |
| CCN1CCN(c2cc(C)c3cc(NC(=O)C(c4ccccc4)C4CCCC4)ccc3n2)CC1 (stereo not given) | 646 s |
| COc1ccc(NC(=O)N2CCC(n3c(-c4ccco4)nc4cccnc43)C2)cc1Cl (stereo not given) | 753 s |
| COC(=O)c1cnc2nc(C)ccc2c1Nc1ccc(Br)cc1C | 732 s |
| O=C(NC(Cc1ccccc1)C(=O)N1CCN(c2ccccn2)CC1)c1ccc(Cl)cc1 (stereo not given) | 692 s |
| O=c1ccc(-c2ccc(Cl)cc2)nn1CCc1nc(-c2ccc3c(c2)OCO3)no1 | 1040 s |
| CCN(CC)CCNC(=O)Cn1nc(-n2cccc2)c2c(C)cc(C)nc21 | 636 s |
| COc1ccc(C(=O)NCCC(O)C(C)(C)C)cc1 (stereo not given) | 688 s |
| O=C(N[C@H]1C[C@@H]2C[C@H]1N(C(=O)c1cccc(Cl)c1)C2)c1ccccc1 | 748 s |
| CN1CCN(C(c2cccnc2)c2c(NC(=O)c3ccco3)sc3c2CCCC3)CC1 (stereo not given) | 611 s |
| Cc1cn2c3c(=O)n(Cc4c(F)cccc4Cl)c(=O)n(C)c3nc2n1C(C)C | 886 s |
| Cc1sc2ccn(Cc3ccc(F)cc3)c(=O)c2c1C(=O)NC(C)C | 814 s |
| CC(C)C(=O)NCc1nc(-c2ccccc2Cl)no1 | 754 s |
| CN(C)C(=O)C1CN(C(=O)c2ccc(Br)cc2)CC12CCOCC2 (stereo not given) | 631 s |
| CCC(C)NC(=O)c1cc(C)n(C)n1 (stereo not given) | 660 s |

Second part, the molecule after the results:

| RP-LC retention time | Compound |
| --- | --- |
| 1120 s | Cc1ccc(C)c(N2CCN(C(=O)Cc3csc4nc(-c5ccc(C)c(C)c5)cn34)CC2)c1 |
| 861 s | CCC1Oc2ccc(S(=O)(=O)N3CCC(C(=O)Nc4ccc(OC)cc4)CC3)cc2NC1=O (stereo not given) |
| 947 s | Cc1nc(-c2ccccc2)sc1CC(=O)NCCC1=CCCCC1 |
| 636 s | CCc1ccc(-n2c(CN3CCN(C(=O)NCC4CCCO4)CC3)nc3cccnc32)cc1 (stereo not given) |
| 709 s | CC(C)(C)OC(=O)Cn1cnc2c(-c3ccc(F)cc3)csc2c1=O |
| 779 s | CC1(C(=O)NCc2ccccc2)CN(S(C)(=O)=O)CC(=O)N1Cc1ccc(F)cc1 (stereo not given) |
| 875 s | COc1cc(NC(=O)C2CCN(S(=O)(=O)c3ccc4c(c3)sc(=O)n4C)CC2)cc(OC)c1 |
| 805 s | CCOC(=O)c1ccc(NC(=O)C2CCN(C(=O)C3Sc4ccccc4NC3=O)CC2)cc1 (stereo not given) |
| 711 s | COC(=O)Cn1nc2ccc(S(=O)(=O)N3CCSCC3)cn2c1=O |
| 760 s | CCn1cnc(S(=O)(=O)N2CCCC(C(=O)Nc3cccc(F)c3)C2)c1 (stereo not given) |
| 673 s | Cc1cccc(NS(=O)(=O)c2ccc3nncn3c2)c1 |
| 671 s | O=C(NC1CC1)C1CCN(c2ccc(=O)n(-c3ccc(F)cc3)n2)CC1 |
| 885 s | O=C(Cn1nc2c(Oc3cccc(F)c3)nccn2c1=O)Nc1cc(F)ccc1F |
| 951 s | COc1ccc(C(=O)Cn2nc3n(CC(C)C)c(=O)c4ccccc4n3c2=O)cc1OC |
| 842 s | CCc1onc(C)c1C1CCCN1C(=O)Nc1cccc(C)c1 (stereo not given) |
| 626 s | O=C(CN1C(=O)C2CCCCN2c2ccc(C(=O)N3CCCC3)cc21)NCc1ccccn1 (stereo not given) |
| 961 s | Cc1nc(-c2ccc(Cl)cc2)sc1C(=O)N1CCN(c2ncccn2)CC1 |
